According to article PMC12190659, “A Near-Infrared Fluorescent Probe for Specific Imaging of Lymph Node Metastases in Ovarian Cancer via Active Targeting of the Gonadotropin-Releasing Hormone Receptor” (Biomolecules, 2025):
Entries after “also recorded” stand apart in the source; their conditions may differ.

Key:
[1] = system: lymphatic metastases in early-stage ovarian cancer; set-up: method as in PMID 38006759; conditions: compared with systematic lymphadenectomy; cited from earlier work
Description: Lymph node metastases are commonly observed in advanced ovarian cancer and are associated with a poor survival rate. Systematic lymphadenectomy seems necessary to achieve complete tumor reduction. […] In a prospectively randomized, controlled trial of lymphadenectomy in patients with primary ovarian cancer (FIGO stage IIB through IV) with macroscopically complete resection and clinically negative lymph nodes (LION trial), systematic pelvic and p ...

folate receptor alpha = conditions: cited from earlier work
Description: Real-time guidance provided by intraoperative fluorescence imaging helps improve the resection rate of tumors. Over the past two decades, researchers have attempted to develop tumor-specific fluorophores for intraoperatively detecting ovarian cancer. Pafolacianine (OTL38), a fluorescent tracer that targets folate receptor alpha, is the first FDA-approved agent for fluorescence-guided ovarian cancer surgery. In a phase III study (NCT03180307), additional cancer lesions were identified in 33% of patients with known or suspected ovarian cancer who were scheduled to undergo cytored ...

[2] = system: peritoneal metastatic A2780-luciferase ovarian cancer; experiment: In vivo and ex vivo NIR fluorescence imaging, peritoneal metastasis model; set-up: species or system BALB/c nude mice; conditions: 2.0 mg/kg, intraperitoneal injection, n = 3
Experimental: Mouse models with peritoneal metastasis: A total of 1 × 10^7 A2780-luciferase cells were injected into the abdominal cavities of the mice. The tumors were allowed to grow for 2 weeks and monitored via bioluminescence imaging using the IVIS Lumina K Imaging system (PerkinElmer, Waltham, USA).
The tumor-bearing mice were injected with GnRHa-PEG-Rh760 at a dose of 2.0 mg/kg body weight (n = 3). PEG-Rh760 was used as a non-targeted control probe. The probes were formulated using phosphate buffered saline (PBS) solutions with a pH of 7.4. For mice with subcutaneous xenografts and lymph node metastasis, the probe was administered via tail vein injection. […] In vivo NIR fluorescence imaging (Ex/Em = 740 nm/790 nm) was performed at different time points post-injection via the IVIS Lumina K Imaging system (PerkinElmer, Waltham, USA). Moreover, tumors, lymph nodes, and major organs were immediately dissected from sacrificed mice and imaged under NIR fluorescence. The fluorescence signals were quantified as the average radiant efficiency ([p/s/cm^2/sr]/[μW/cm^2]) via Living Image software (version 4.5, PerkinElmer, Waltham, USA).
To verify the specificity of the NIR fluorescence imaging of GnRHa-PEG-Rh760, bioluminescence imaging of A2780-luciferase and ES-2-luciferase tumor-bearing mice was performed via the IVIS Lumina K Imaging system (PerkinElmer, Waltham, USA). […]

[3] = system: subcutaneous A2780 (GnRHR-positive) ovarian cancer; experiment: In vivo NIR fluorescence imaging, subcutaneous xenograft model; set-up: species or system BALB/c nude mice; conditions: 2.0 mg/kg, tail vein, n = 3
Experimental: (§1) Mouse models with subcutaneous xenografts: A total of 5 × 10^6 A2780 cells were subcutaneously injected into the flanks of the mice. The tumors were allowed to grow until their diameter reached approximately 5 mm before treatment.
(§2) The tumor-bearing mice were injected with GnRHa-PEG-Rh760 at a dose of 2.0 mg/kg body weight (n = 3). PEG-Rh760 was used as a non-targeted control probe. The probes were formulated using phosphate buffered saline (PBS) solutions with a pH of 7.4. For mice with subcutaneous xenografts and lymph node metastasis, the probe was administered via tail vein injection. For mice with peritoneal metastasis, the probe was injected intraperitoneally into the lower right abdominal region. In vivo NIR fluorescence imaging (Ex/Em = 740 nm/790 nm) was performed at different time points post-injection via the IVIS Lumina K Imaging system (PerkinElmer, Waltham, USA). Moreover, tumors, lymph nodes, and major organs were immediately dissected from sacrificed mice and imaged under NIR fluorescence. The fluorescence signals were quantified as the average radiant efficiency ([p/s/cm^2/sr]/[μW/cm^2]) via Living Image software (version 4.5, PerkinElmer, Waltham, USA).

[4] = system: subcutaneous A2780 ovarian cancer; experiment: Ex vivo fluorescence biodistribution, subcutaneous xenograft model; assay type: in vivo, BALB/c nude mice
Experimental: as §1, §2
Figure S1 Mass spectra of GnRHa-PEG-Rh760 (A) and PEG-Rh760 (B).
Figure S2 Biodistribution of GnRHa-PEG-Rh760 in mice bearing subcutaneous A2780 ovarian tumors. The mice were injected with GnRHa-PEG-Rh760 via the tail vein and monitored for 120 h. The fluorescence intensities of the ex vivo tumors and organs were measured (n=3). […]

[5] = UV-visible absorption and fluorescence emission spectra; assay type: physicochemical; conditions: DMSO solution
Experimental: The probe GnRHa-PEG-Rh760 was synthesized as shown in the scheme in Figure 1A. The NIR fluorophore Rh760 and its derivatives Rh760-PAZ and Rh760-GA were synthesized as previously reported. All probes were synthesized by Guoping Pharmaceutical (Hefei, China). Briefly, the sequence of the GnRHa peptide (D-2-Nal-D-4-Cl-Phe-D-3-Pal-Ser-Tyr-D-Cit-Leu-Arg-Pro-D-Ala-NH2) was prepared via the standard Fmoc solid-phase peptide synthesis method. After peptide chain coupling, piperidine was added, and the mixture was allowed to react for 20 min to remove Fmoc. Then, Fmoc-PEG2000-COOH and Rh760 were added in sequence and allowed to react until the resin test was colorless. The resin was washed with methanol and then shaken for 2 h with cutting fluid. The resulting reaction mixture was precipitated with ice-cold ether, yielding a blue–green solid. PEG-Rh760 without GnRHa peptide modification was synthesized as the control. The final products were evaluated by mass spectrometry (MS). The UV–visible absorption spectra were measured with a LAMBDA 750 spectrometer (PerkinElmer, Waltham, USA), and the fluorescence emission spectra were measured with a QuantaMaster 40 fluorospectrometer in DMSO solution.

[6] = In vivo safety evaluation; set-up: species or system mice; conditions: 2.0 mg/kg, tail vein, n = 3
Experimental: The mice were injected with GnRHa-PEG-Rh760 at a dose of 2.0 mg/kg body weight via the tail vein (n = 3). PEG-Rh760 and vehicle were used as controls. The body weights of the mice were continuously monitored. The mice were sacrificed after 6 days. Routine blood tests were conducted to assess red blood cells (RBCs), white blood cells (WBCs), and platelets (PLTs). Blood biochemistry tests were conducted to assess alanine transaminase (ALT), aspartate transaminase (AST), blood urea nitrogen (BUN), and creatinine (CREA) levels. Tissue sections from organs, including the heart, lung, liver, spleen, kidney, and muscle, were stained with hematoxylin and eosin (H&E) for histopathological analysis.

GnRHR = target: T1, GnRHR (Homo sapiens, UniProt P30968); experiment: Confocal fluorescence microscopy of frozen tissue sections; assay type: in vivo, BALB/c nude mice
T1 construct: mouse model bearing subcutaneous A2780 (GnRHR-positive) ovarian cancer; endogenous in cells; host or cells: A2780 and ES-2 human ovarian cancer cells grown as xenografts or lymph node metastases in BALB/c nude mice; frozen tissue sections
T1 sequence (P30968 1-328): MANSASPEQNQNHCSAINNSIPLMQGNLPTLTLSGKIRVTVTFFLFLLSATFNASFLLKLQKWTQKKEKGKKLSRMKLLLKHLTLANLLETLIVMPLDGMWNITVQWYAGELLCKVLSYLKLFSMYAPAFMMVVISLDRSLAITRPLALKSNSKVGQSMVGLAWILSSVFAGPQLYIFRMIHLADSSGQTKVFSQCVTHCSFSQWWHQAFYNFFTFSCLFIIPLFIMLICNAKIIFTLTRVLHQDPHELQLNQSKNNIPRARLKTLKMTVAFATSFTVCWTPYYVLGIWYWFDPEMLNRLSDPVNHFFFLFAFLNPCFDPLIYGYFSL
Description: To examine the binding of probes to ovarian cancer tissues, tumors, lymph nodes and skeletal muscle were obtained from sacrificed mice and then embedded in frozen section embedding medium. The frozen tissues were sectioned, fixed and mounted. Nuclei were labeled with DAPI. Fluorescence images were captured via confocal fluorescence microscopy (TCS SP5, Leica, Wetzlar, Germany).

[7] = system: lymph node metastases of ES-2-luciferase ovarian cancer; experiment: In vivo and ex vivo NIR fluorescence imaging, lymph node metastasis model; set-up: species or system BALB/c nude mice; conditions: 2.0 mg/kg, tail vein
Experimental: Mouse models with lymph node metastasis: A total of 2 × 10^6 ES-2-luciferase cells were injected into the unilateral footpads of the mice. The lymph node metastases were monitored via bioluminescence imaging. Spontaneous metastases to popliteal (PO) and inguinal (IN) lymph nodes as well as occasional metastases to iliac (IL) and sciatic (SC) lymph nodes were observed after 2–3 weeks of primary tumor growth. The lymph node tissues were confirmed by histological examination and immunohistochemical staining for CK7.
as §2
To verify the specificity of the NIR fluorescence imaging of GnRHa-PEG-Rh760, bioluminescence imaging of A2780-luciferase and ES-2-luciferase tumor-bearing mice was performed via the IVIS Lumina K Imaging system (PerkinElmer, Waltham, USA). The mice were injected with 150 mg/kg body weight D-luciferin (YEASEN Biotech, Shanghai, China) and imaged at 15 min post-injection. Moreover, tumors, lymph nodes, and major organs were immediately dissected from sacrificed mice and imaged. Bioluminescence signals were quantified as the total flux (p/s) via Living Image software (version 4.5, PerkinElmer, Waltham, USA).

CC1(C)C(/C=C/C=C/C=C/C=C2\N(CCCCS(=O)(=O)O)c3ccc4ccccc4c3C2(C)C)=[N+](CCCCS(=O)(=O)[O-])c2ccc3ccccc3c21 [indocyanine green]
detection rate of sentinel lymph node mapping [1]: low detection rate

CC1(C)C(/C=C/C2=C(Oc3ccc(C[C@H](NC(=O)c4ccc(NCc5cnc6nc(N)[nH]c(=O)c6n5)cc4)C(=O)[O-])cc3)C(=C/C=C3\N(CCCCS(=O)(=O)[O-])c4ccc(S(=O)(=O)[O-])cc4C3(C)C)/CCC2)=[N+](CCCCS(=O)(=O)[O-])c2ccc(S(=O)(=O)[O-])cc21.[H+].[H+].[H+].[H+] [pafolacianine, Pafolacianine]
false-positive lymph nodes (folate receptor alpha; phase I to III studies): false-positive lymph nodes were also observed
patients in whom additional cancer lesions were identified (folate receptor alpha; phase III study NCT03180307, versus white light assessment and palpation): 33%

D-2-Nal-D-4-Cl-Phe-D-3-Pal-Ser-Tyr-D-Cit-Leu-Arg-Pro-D-Ala-NH2 [GnRHa-PEG-Rh760, GnRHR-targeted NIR fluorescent probe: GnRH analog peptide conjugated with Rh760 fluorophore and polyethylene glycol (PEG)]
NIR fluorescence signals in peritoneal metastases [2]: high fluorescent signals
NIR fluorescence in subcutaneous tumors ([3]; Ex/Em 740/790 nm): High fluorescence intensity
duration of stronger fluorescence signals in tumors post-injection [3]: up to 72 h
NIR fluorescence in normal ovarian tissues ([4]; ex vivo): weak NIR fluorescence
biodistribution (organs of accumulation) ([4]; ex vivo fluorescence of tumors and organs, 2.0 mg/kg, tail vein, monitored for 120 h, n = 3): mainly accumulated in the tumor and liver tissues; also recorded: predominant accumulation in the tumor and liver, followed by the kidneys
clearance of the probe ([4]; ex vivo fluorescence of tumors and organs, 2.0 mg/kg, tail vein, n = 3): gradually cleared at 96 h post-injection
tumor-to-background (skeletal muscle) fluorescence ratio ([4]; ex vivo, 2.0 mg/kg, tail vein, n = 3): high ratio of tumor-to-background
maximum absorption peak [5]: 780 nm
maximum emission peak [5]: 805 nm
body weight change versus control group ([6]; 6 days): No significant body weight loss
hematologic analysis: RBC, WBC, PLT, ALT, AST, BUN, CREA levels ([6]; after 6 days): no significant changes
histopathology (H&E) of heart, lung, liver, spleen, kidney, muscle ([6]; after 6 days): No notable tissue injury
binding in tumor sections (versus skeletal muscle) (GnRHR; frozen sections from subcutaneous A2780 tumor-bearing mice injected with the probe): specific binding
binding in metastatic lymph node sections (GnRHR; frozen sections of lymph nodes from ES-2-luciferase model): specific binding
NIR fluorescence in metastatic lymph nodes ([7]; n = 3): well identified and detected by NIR fluorescence
NIR fluorescence in normal lymph nodes ([7]; n = 3): no NIR fluorescence signals were detected
average fluorescence intensity in metastatic versus normal lymph nodes ([7]; n = 3, p < 0.05): significantly greater
